Reference: patent US20220144853A1, “IMIDAZOLINE DERIVATIVES AS CXCR4 MODULATORS” (Université de Paris, priority 2019, published 2022)
Where a name gives a salt, the structure may show the parent alone.

Tests used:
IFN-γ = assay: Cytokine production by R848-activated PBMCs, LEGENDplex Human Inflammation panel 1: IFN-γ; type: cell-based; settings: Homo sapiens, PBMC, PBMCs from 2 healthy donors, R848 overnight
Method: (§1) 2) The PBMCs used herein were prepared as described in part A “immune cells preparation”, section 2) above. PBMCs were seeded at 4.10^6/mL. […] Cells were then stimulated with the TLR7/8 agonist resiquimod—R848 (Sigma-Aldrich, MO, USA) at 5 μg/mL.
(§2) Cytokine expression levels were assessed using LEGENDplex Human inflammation panel 1 Kit (BioLegend, California, USA), which is a bead-based multiplex assay, using fluorescence-encoded beads. […] First, supernatants of R848-stimulated PBMCs were harvested after 24 h of stimulation and frozen at −20° C. for storage. Supernatants were dispensed into a 96-well V-bottom plate. Protocol pursued as per manufacturer recommendations (Manual for BioLegend LEGENDplex, Multi-Analyte Flow Assay Kit, Human Inflammation Panel 1, version 750000393_R01).

[1] = tested on: IL-1β, IFN-γ, TNF-α, IL-10, IL-12p70, IL-18 and IL-23; assay: Cytokine production by R848-activated PBMCs, LEGENDplex: statements on all inhibited cytokines together; type: cell-based; settings: Homo sapiens, PBMC, PBMCs from two healthy donors, read-out: IC50 on the expression of cytokines, on all such cytokines
Method: as §1, §2

IL-12p70 = assay: Cytokine production by R848-activated PBMCs, LEGENDplex Human Inflammation panel 1: IL-12p70; type: cell-based; settings: Homo sapiens, PBMC, PBMCs from 2 healthy donors, R848 overnight
Method: as §1, §2

IL-10 = assay: Cytokine production by R848-activated PBMCs, LEGENDplex Human Inflammation panel 1: IL-10; type: cell-based; settings: Homo sapiens, PBMC, PBMCs from 2 healthy donors, R848 overnight
Method: as §1, §2

TNF-α = assay: Cytokine production by R848-activated PBMCs, LEGENDplex Human Inflammation panel 1: TNF-α; type: cell-based; settings: Homo sapiens, PBMC, PBMCs from 2 healthy donors, R848 overnight
Method: as §1, §2

IL-1β = assay: Cytokine production by R848-activated PBMCs, LEGENDplex Human Inflammation panel 1: IL-1β; type: cell-based; settings: Homo sapiens, PBMC, PBMCs from 2 healthy donors, R848 overnight, read-out: IC50 (μM) 1L-1β
Method: as §1, §2

IL-23 = assay: Cytokine production by R848-activated PBMCs, LEGENDplex Human Inflammation panel 1: IL-23; type: cell-based; settings: Homo sapiens, PBMC, PBMCs from 2 healthy donors, R848 overnight
Method: as §1, §2

IL-18 = assay: Cytokine production by R848-activated PBMCs, LEGENDplex Human Inflammation panel 1: IL-18; type: cell-based; settings: Homo sapiens, PBMC, PBMCs from 2 healthy donors, R848 overnight
Method: as §1, §2

[2] = tested on: IFN production by activated PBMCs; assay: IFN production by R848-activated PBMCs from healthy donors, twINNE reporter cell line; type: cell-based, human; settings: Homo sapiens, PBMC, means of two results over 2 healthy donors, R848 5 μg/mL, IT1t: mean over all experiments, read-out: IC50 of anti-inflammatory activity (IFN production)
In short: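 Human PBMCs (4.10^6/mL, RPMI/10% FBS, 37° C) stimulated with R848 at 5 μg/mL; supernatants collected after 24 h. Functional IFN measured on twINNE cells (ISRE-driven luciferase reporter) after 24 h culture by bioluminescence; IC50 from variable-slope dose-response fits.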

Structure (SMILES) | melting point [°C] | IC50 (IFN-γ) [µM] | IC50 (IL-12p70) [µM] | IC50 (IL-1β) [µM] | IC50 (IL-23) [µM] | IC50 (IL-18) [µM] | IC50 [2] [µM] | further results
CC1(C)CN=C(SCC2=CSC3=N[C@H]4CCCC[C@@H]4N23)N1 (racemic) (as salt: hydrochloride) [Example 7, trans-3-(((4,4-dimethyl-4,5-dihydro-1H-imidazol-2-yl)thio)methyl)-4a,5,6,7,8,8a-hexahydrobenzo[4,5]imidazo[2,1-b]thiazole dihydrochloride] | 248 to 252 | – | – | – | – | – | – | –
CC1(C)CN=C(SCC2=CSC3=N[C@H]4CCCC[C@H]4N23)N1 (racemic) (as salt: hydrochloride) [Example 10, cis-3-(((4,4-dimethyl-4,5-dihydro-1H-imidazol-2-yl)thio)methyl)-4a,5,6,7,8,8a-hexahydrobenzo[4,5]imidazo[2,1-b]thiazole dihydrochloride] | 210 to 215 | – | – | – | – | – | – | –
CC1(C)CN=C(SCC2=CSC3=N[C@H]4CCCC(C4)N23)N1 (racemic) (as salt: hydrochloride) [Example 23, cis-3-(((5,5-dimethyl-4,5-dihydro-1H-imidazol-2-yl)thio)methyl)-6,7,8,9-tetrahydro-5H-5,9-methanothiazolo[3,2-a][1,3]diazocine dihydrochloride] | 240 to 245 | – | – | – | – | – | – | –
CC1(C)CN=C(SCC2=CSC3=N[C@H]4CCCC[C@@H]4N23)N1 (racemic) [Example 7, trans-3-(((4,4-dimethyl-4,5-dihydro-1H-imidazol-2-yl)thio)methyl)-4a,5,6,7,8,8a-hexahydrobenzo[4,5]imidazo[2,1-b]thiazole dihydrochloride] | – | 9.8 | 6.7 | 9.9 | 2.9 | 4.2 | ≤ 10 | IC50 [1]: ≤ 20 µM; IC50 (IL-10): 5.6 µM; IC50 (TNF-α): 20 µM
CN1CCN=C1SCC1=CSC2=NC3CCCCC3N12 (racemic) [Example 63, trans-3-(((1-methyl-4,5-dihydro-1H-imidazol-2-yl)thio)methyl)-4a,5,6,7,8,8a-hexahydrobenzo[4,5]imidazo[2,1-b]thiazole dihydrochloride] | – | 2.7 | 1.2 | 2.8 | 0.69 | 1.3 | ≤ 10 | –
CC1(C)CN2C(CSC3=N[C@@H]4CCCC[C@H]4N3)=CSC2=N1 [Example 3, 3-((((3aR,7aR)-3a,4,5,6,7a-hexahydro-1H-benzo[d]imidazol-2-yl)thio)methyl)-6,6-dimethyl-5,6-dihydroimidazo[2,1-b]thiazole dihydrochloride] | – | 7.2 | 2.6 | 12 | 1.7 | 6.9 | ≤ 10 | IC50 [1]: ≤ 20 µM; IC50 (IL-10): 11 µM; IC50 (TNF-α): 11 µM
CC1(C)CN2C(CSC3=NCC(Cc4ccccc4)N3)=CSC2=N1 (stereo not drawn) [Example 17, 3-(((5-benzyl-4,5-dihydro-1H-imidazol-2-yl)thio)methyl)-6,6-dimethyl-5,6-dihydroimidazo[2,1-b]thiazole dihydrochloride] | – | 3.2 | 0.34 | 3.6 | 2.2 | 0.54 | ≤ 10 | IC50 [1]: ≤ 20 µM; IC50 (IL-10): 2.7 µM; IC50 (TNF-α): 4.6 µM
CC1(C)CN=C(SCC2=CSC3=NC(Cc4ccccc4)CN23)N1 (stereo not drawn) [Example 18, 6-benzyl-3-(((5,5-dimethyl-4,5-dihydro-1H-imidazol-2-yl)thio)methyl)-5,6-dihydroimidazo[2,1-b]thiazole dihydrochloride] | – | 6.1 | 3.6 | 5.6 | 2.9 | 0.2 | 10 to 31 | IC50 [1]: ≤ 20 µM; IC50 (IL-10): 3.7 µM; IC50 (TNF-α): 7.9 µM

Second part, led by results:

melting point [°C] | Structure (SMILES) | IC50 (IFN-γ) [µM] | IC50 (IL-12p70) [µM] | IC50 (IL-1β) [µM] | IC50 (IL-23) [µM] | IC50 (IL-18) [µM] | IC50 [2] [µM] | further results
240 to 243 | CC1(C)CN2C(=N1)SCC2SC1=NCC(C)(C)N1 (stereo not drawn) (as salt: hydrochloride) [Example 70, 3-((5,5-dimethyl-4,5-dihydro-1H-imidazol-2-yl)thio)-6,6-dimethyl-2,3,5,6-tetrahydroimidazo[2,1-b]thiazole dihydrochloride] | – | – | – | – | – | – | –
> 250 | C1=C(CSC2=N[C@H]3COC[C@H]3N2)N2C(=N[C@@H]3COC[C@@H]32)S1 (mixture of isomers) (as salt: hydrochloride) [Example 36, mixture of (4aS,7aR)-3-((((3aS,6aR)-3a,4,6,6a-tetrahydro-1H-furo[3,4-d]imidazol-2-yl)thio)methyl)-4a,5,7,7a-tetrahydrofuro[3′,4′:4,5]imidazo[2,1-b]thiazole dihydrochloride and (4aR,7aS)-3-((((3aR,6aS)-3a,4,6,6a-tetrahydro-1H-furo[3,4-d]imidazol-2-yl)thio)methyl)-4a,5,7,7a-tetrahydrofuro[3′,4′: 4,5]imidazo[2,1-b]thiazole dihydrochloride] | – | – | – | – | – | – | –
226 to 230 | CCCCC1CN=C(SCC2=CSC3=N[C@H]4CCCCC4N23)N1 (mixture of isomers) (as salt: hydrochloride) [Example 54, trans-3-(((5-butyl-4,5-dihydro-1H-imidazol-2-yl)thio)methyl)-4a,5,6,7,8,8a-hexahydrobenzo[4,5]imidazo[2,1-b]thiazole dihydrochloride] | – | – | – | – | – | – | –
137 to 142 | C1=C(CSC2=NCC(Cc3ccccc3)N2)N2C(=N[C@H]3CCCCC32)S1 (mixture of isomers) (as salt: hydrochloride) [Example 55, trans-3-(((5-benzyl-4,5-dihydro-1H-imidazol-2-yl)thio)methyl)-4a,5,6,7,8,8a-hexahydrobenzo[4,5]imidazo[2,1-b]thiazole dihydrochloride] | – | – | – | – | – | – | –
115 to 120 | C1=C(CSC2=NCCN2)N2C(=N[C@H]3CCCCC32)S1 (mixture of isomers) (as salt: hydrochloride) [Example 59, trans-3-(((4,5-dihydro-1H-imidazol-2-yl)thio)methyl)-4a,5,6,7,8,8a-hexahydrobenzo[4,5]imidazo[2,1-b]thiazole dihydrochloride] | – | – | – | – | – | – | –
237 to 241 | CC(C)[C@@H]1N=C2SC=C(CSC3=NCC(C)(C)N3)N2[C@H]1C(C)C (racemic) (as salt: hydrochloride) [Example 62, trans-3-(((5,5-dimethyl-4,5-dihydro-1H-imidazol-2-yl)thio)methyl)-5,6-diisopropyl-5,6-dihydroimidazo[2,1-b]thiazole dihydrochloride] | – | – | – | – | – | – | –
204 to 207 | CN1CCN=C1SCC1=CSC2=NC3CCCCC3N12 (racemic) (as salt: hydrochloride) [Example 63, trans-3-(((1-methyl-4,5-dihydro-1H-imidazol-2-yl)thio)methyl)-4a,5,6,7,8,8a-hexahydrobenzo[4,5]imidazo[2,1-b]thiazole dihydrochloride] | – | – | – | – | – | – | –
85 to 95 | CC1(C)CN2C(CCCSC3=NCC(C)(C)N3)=CSC2=N1.Cl.Cl [Example 64, 3-(3-((5,5-dimethyl-4,5-dihydro-1H-imidazol-2-yl)thio)propyl)-6,6-dimethyl-5,6-dihydroimidazo[2,1-b]thiazole dihydrochloride] | – | – | – | – | – | ≥ 31 | –
